30 compounds from patent US9145354B2, “Pharmaceutical compounds” (priority 2011, dated 2015) can be followed below.

The target in the experiment is full length NS3/4a (Hepatitis C virus genotype 1b (isolate BK) (HCV), UniProt P26663). As to the kind of experiment: NS3 Protease Assay (Example A), FRET-based. Format: biochemical. The procedure:
The HCV NS3 protease functions have been extensively studied and are considered as potential targets for antiviral therapy: see for example the many references listed in the introductory section of this application. Therefore, the activity of the compounds of the invention as anti-HCV agents was assessed using a full length HCV NS3 protease.
The protease activity of the full length NS3/4a was measured using a FRET-based assay utilizing a peptide substrate derived from the NS4A/B cleavage site (Anaspec) and labelled at one end with a quencher (QXL520) and at the other with a fluorophore (5-FAMsp). NS3/4a (produced in-house by literature methods) was incubated with test compounds and peptide substrate in 50 mM Tris pH8, 20 mM DTT, 1% CHAPS, 10% glycerol and 5% DMSO. The reaction was followed by monitoring the change in fluorescence on a Molecular Devices Gemini plate reader for 30 minutes at room temperature. Initial rates were calculated from the progress curves using SoftMax Pro (Molecular Devices). IC50 values were then calculated from replicate curves using Prism GraphPad software.

Setting [1] is: HCV NS3 protease assay, full length NS3/4a, read-out: Assay A IC50 (μM) average.
[2] abbreviates: read-out: IC50 against the protease activity of the full length NS3/4a.
[3] abbreviates: stated as IC50 less than 30 μM or at least 40% inhibition at a concentration of 100 μM, read-out: IC50 against the protease activity of the full length NS3/4a.

Where two headings read alike, the source gives them in different places. Where only a bound is given, the exact number is not on record here.

full length NS3/4a, sequence (P26663 1027-1657): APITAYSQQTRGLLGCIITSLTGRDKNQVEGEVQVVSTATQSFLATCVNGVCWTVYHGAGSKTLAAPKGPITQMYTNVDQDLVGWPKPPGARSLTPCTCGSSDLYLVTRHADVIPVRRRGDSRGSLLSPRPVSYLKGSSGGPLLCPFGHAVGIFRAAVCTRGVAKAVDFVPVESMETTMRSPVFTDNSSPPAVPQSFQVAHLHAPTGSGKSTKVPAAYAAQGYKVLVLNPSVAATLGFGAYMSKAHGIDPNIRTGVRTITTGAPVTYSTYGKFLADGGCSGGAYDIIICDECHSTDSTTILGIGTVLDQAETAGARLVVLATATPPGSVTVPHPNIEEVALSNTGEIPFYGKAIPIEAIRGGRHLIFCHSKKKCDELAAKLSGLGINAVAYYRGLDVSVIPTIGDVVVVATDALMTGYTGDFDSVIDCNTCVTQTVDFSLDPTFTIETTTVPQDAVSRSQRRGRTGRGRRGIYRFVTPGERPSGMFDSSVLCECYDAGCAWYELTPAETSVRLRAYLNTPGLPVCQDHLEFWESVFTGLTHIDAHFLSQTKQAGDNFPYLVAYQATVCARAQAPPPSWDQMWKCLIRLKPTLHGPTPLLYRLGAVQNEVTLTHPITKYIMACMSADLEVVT

In the case of `CC[C@@H](N[C@H](C)CC(N)=O)c1ccc(Cl)c(C(=O)c2ccc(F)cc2)c1F` [Example 98, (3R)-3-{[(1R)-1-{4-chloro-2-fluoro-3-[(4-fluorophenyl)-carbonyl]phenyl}propyl]amino}butanamide], the IC50 under setting [1] is 0.6 µM.
For the compound `COc1ccc([C@H](N[C@@H](C)CC(N)=O)C2CC2)c(F)c1C(=O)c1ccc(F)cc1` [Example 210, (3S)-3-{[(R)-cyclopropyl({2-fluoro-3-[(4-fluorophenyl)carbonyl]-4-methoxyphenyl})methyl]amino} butanamide], the IC50 is, setting by setting: under setting [1], 0.098 µM; under setting [2], less than 1 µM.
For the compound `CC[C@@H](N[C@@H](C)c1cnc[nH]1)c1ccc(Cl)c(C(=O)c2cccnc2)c1F` [Example 305, [(1R)-1-{4-chloro-2-fluoro-3-[(pyridin-3-yl)carbonyl]phenyl}propyl] [(1S)-1-(1H-imidazol-5-yl)ethyl]amine], the IC50 under setting [1] was found to be 1.1 µM and the IC50 under setting [2] lay in the range of 1 to 5 µM.
Turning to `CC[C@@H](N[C@H](C)CC(N)=O)c1ccc(Cl)c(C(=O)c2ccncn2)c1F` [Example 100, (3R)-3-{[(1R)-1-{4-chloro-2-fluoro-3-[(pyrimidin-4-yl)carbonyl]phenyl}propyl]amino}butanamide], the IC50 reads like this: under setting [1], 14 µM; under setting [3], less than 30 µM.
As a reminder, the inhibition is the share of the control response that was lost under treatment. For `CC[C@@H](N[C@H](C)CC(N)=O)c1ccc(Cl)c(C(=O)c2cccc(F)c2)c1F` [Example 96, (3R)-3-{[(1R)-1-{4-chloro-2-fluoro-3-[(3-fluorophenyl)-carbonyl]phenyl}propyl]amino}butanamide], testing at 0.3 µM (@ 0.3 uM) gave an inhibition of 58%.
With `CC[C@@H](N)c1ccc(Cl)c(C(=O)c2ccncn2)c1F` [Example 10, (1R)-1-{4-chloro-2-fluoro-3-[(pyrimidin-4-yl)carbonyl]phenyl}-propan-1-amine], the IC50 is, setting by setting: under setting [1], 3.5 µM; under setting [2], 1 to 5 µM.
Take `CC[C@@H](N)c1ccc(Cl)c(C(=O)c2cnc(SC)nc2)c1F` [Example 51, (1R)-1-(4-chloro-2-fluoro-3-{[2-(methylsulfanyl)pyrimidin-5-yl]carbonyl}phenyl)propan-1-amine]: testing at 3 µM gave an inhibition of 44%. For the same compound, the IC50 under setting [3] was less than 30 µM.
For `N[C@@H](c1ccc(Cl)c(C(=O)c2ccncc2)c1F)C1CC1` [Example 33, (R)-{4-chloro-2-fluoro-3-[(pyridin-4-yl)carbonyl]phenyl}(cyclopropyl)methanamine], the IC50 is, setting by setting: under setting [1], 0.71 µM; under setting [2], less than 1 µM.
For `CC[C@@H](N)c1ccc(Cl)c(C(=O)c2ccccn2)c1F` [Example 14, (1R)-1-{4-chloro-2-fluoro-3-[(pyridin-2-yl)carbonyl]phenyl}propan-1-amine] the same measures were 2.5 µM and 1 to 5 µM.
Compound `CC[C@@H](N)c1ccc(Cl)c(C(=O)c2ccc(Cl)nn2)c1F` [Example 214, (1R)-1-{4-chloro-3-[(6-chloropyridazin-3-yl)carbonyl]-2-fluorophenyl}propan-1-amine] came in with an inhibition at 10 µM of 51%. Further, the IC50 under setting [3] was less than 30 µM.
The compound `CC[C@@H](N[C@H](C)CC(N)=O)c1ccc(Cl)c(C(=O)c2ccc(OC)c(C#N)c2)c1F` [Example 217, (3R)-3-{[(1R)-1-{4-chloro-3-[(3-cyano-4-methoxyphenyl)carbonyl]-2-fluorophenyl}propyl]amino}butanamide] came in with an inhibition at 30 µM of 38%.
Take `CC[C@@H](N[C@H](C)CC(N)=O)c1ccc(Cl)c(C(=O)c2ccc(CO)cc2)c1F` [Example 187, (3R)-3-{[(1R)-1-(4-chloro-2-fluoro-3-{[4-(hydroxymethyl)-phenyl]-carbonyl}phenyl)-propyl]amino}butanamide]: the IC50 under setting [1] stood at 0.66 µM.
Take `CC[C@@H](N[C@H](C)CC(N)=O)c1ccc(Cl)c(C(=O)c2cccc(C(=O)O)c2)c1F` [Example 123, 3-({3-[(1R)-1-{[(2R)-1-carbamoylpropan-2-yl]amino}propyl]-6-chloro-2-fluorophenyl}carbonyl)-benzoic acid]: the IC50 was 3.2 µM under setting [1] and 1 to 5 µM under setting [2].
In the case of `CC[C@@H](N)c1ccc(Cl)c(C(=O)c2ccc(Cl)nc2)c1F` [Example 29, (1R)-1-{4-chloro-3-[(6-chloropyridin-3-yl)carbonyl]-2-fluorophenyl}propan-1-amine], the IC50 is 0.5 µM under setting [1] and less than 1 µM under setting [2].
Take `CC[C@@H](N[C@H](C)CC(N)=O)c1ccc(Cl)c(C(=O)c2ccc(N(C)C)nc2)c1F` [Example 137, (3R)-3-{[(1R)-1-(4-chloro-3-{[6-(dimethylamino)pyridin-3-yl]carbonyl}-2-fluorophenyl)propyl]amino}butanamide]: the inhibition at 30 µM came to 60%. Further, the IC50 under setting [3] was less than 30 µM.
On to `CC[C@@H](NC)c1ccc(Cl)c(C(=O)c2ccc(N)nc2)c1F` [Example 307, 5-({6-chloro-2-fluoro-3-[(1R)-1-(methylamino)propyl]-phenyl}carbonyl)pyridin-2-amine], for which the IC50 by setting is: under setting [1], 0.34 µM; under setting [2], less than 1 µM.
For `CC[C@@H](N)c1ccc(Cl)c(C(=O)c2ccc3c(c2)OCC(=O)N3)c1F` [Example 60, 7-({3-[(1R)-1-Aminopropyl]-6-chloro-2-fluorophenyl}-carbonyl)-3,4-dihydro-2H-1,4-benzoxazin-3-one], in that order: 0.55 µM and less than 1 µM.
For `CC[C@@H](N)c1ccc(Cl)c(C(=O)c2ccc(=O)[nH]c2)c1F` [Example 38, 5-({3-[(1R)-1-aminopropyl]-6-chloro-2-fluorophenyl}carbonyl)-1,2-dihydropyridin-2-one], in that order: 3.6 µM and 1 to 5 µM.
For the compound `CC[C@@H](N[C@H](C)CC(=O)NCCN)c1ccc(Cl)c(C(=O)c2ccccc2)c1F` [Example 87, (3R)—N-(2-Aminoethvl)-3-{[(1R)-1-(3-benzoyl-4-chloro-2-fluorophenyl)propyl]-amino}butanamide], for the setting “@ 0.01 uM”, 0.01 µM produced 54% inhibition.
Turning to `COc1ccc([C@H](N)C2CC2)c(F)c1C(=O)c1cccc(F)c1` [Example 201, (R)-cyclopropyl({2-fluoro-3-[(3-fluorophenyl)carbonyl]-4-methoxyphenyl})methanamine], the IC50 by setting is: under setting [1], 3 µM; under setting [2], 1 to 5 µM.
Consider `CC[C@@H](N)c1ccc(Cl)c(C(=O)c2ccc(N)cn2)c1F` [Example 5, 6-({3-[(1R)-1-aminopropyl]-6-chloro-2-fluorophenyl}carbonyl)-pyridin-3-amine], for which the inhibition at 3 µM amounted to 55%. For the same compound, the IC50 under setting [2] lay within 1 to 5 µM.
For `CC[C@@H](N)c1ccc(OC)c(C(=O)c2ccccc2)c1F` [Example 40, (1R)-1-(3-benzoyl-2-fluoro-4-methoxyphenyl)propan-1-amine], the IC50 by setting is: under setting [1], 0.84 µM; under setting [2], less than 1 µM.
For `CC[C@@H](N[C@@H](C)CC(N)=O)c1ccc(Cl)c(C(=O)c2ccc(OC)c(C#N)c2)c1F` [Example 215, (3S)-3-{[(1R)-1-{4-chloro-3-[(3-cyano-4-methoxyphenyl)carbonyl]-2-fluorophenyl}propyl]amino} butanamide], in that order: 1.2 µM and 1 to 5 µM.
`CCC(NC1CCCC1C(N)=O)c1ccc(Cl)c(C(=O)c2ccc(N)nc2)c1F` (single isomer, unassigned) [Example 127, 2-{[1-{3-[(6-aminopyridin-3-yl)carbonyl]-4-chloro-2-fluorophenyl}propyl]amino} cyclopentane-1-carboxamide]: the IC50 reads like this: under setting [1], 1.6 µM; under setting [2], 1 to 5 µM.
In the case of `N#Cc1ccc(C(=O)c2c(Cl)ccc([C@H](N)C3CC3)c2F)cc1` [Example 32, 4-({3-[(R)-amino(cyclopropyl)methyl]-6-chloro-2-fluorophenyl}carbonyl)benzonitrile], the IC50 under setting [1] was found to be 0.058 µM and the IC50 under setting [2] is less than 1 µM.
Regarding `CC[C@@H](N[C@@H](C)c1cn[nH]c1)c1ccc(Cl)c(C(=O)c2cccnc2)c1F` [Example 301, [(1R)-1-{4-chloro-2-fluoro-3-[(pyridin-3-yl)carbonyl]phenyl}propyl] [(1S)-1-(1H-pyrazol-4-yl)ethyl]amine], the inhibition at 10 µM was 65%. Moreover, under setting [3], the IC50 was less than 30 µM.
As to `C=CC[C@@H](N)c1ccc(Cl)c(C(=O)c2ccc(N)nc2)c1F` [Example 67, 5-({3-[(1R)-1-aminobut-3-en-1-yl]-6-chloro-2-fluorophenyl}carbonyl)pyridin-2-amine], the IC50 under setting [1] worked out at 0.37 µM.
`[2H]C([2H])([2H])C([2H])([2H])[C@@H](N)c1ccc(Cl)c(C(=O)c2ccccc2)c1F` [Example 23, (1R)-1-(3-benzoyl-4-chloro-2-fluorophenyl)(2,2,3,3,3-D)propan-1-amine]: the IC50 reads like this: under setting [1], 0.11 µM; under setting [2], less than 1 µM.
For `CC[C@H](N[C@@H](C)CC(N)=O)c1ccc(Cl)c(C(=O)c2ccccc2)c1F` [Example 86, (3S)-3-{[(1S)-1-(3-benzoyl-4-chloro-2-fluorophenyl)-propyl]amino}butanamide], in that order: 1 µM and 1 to 5 µM.
In the case of `CC[C@@H](N[C@H](CC(N)=O)C(C)C)c1ccc(Cl)c(C(=O)c2ccc(N)nc2)c1F` [Example 219, (3R)-3-{[(1R)-1-{3-[(6-aminopyridin-3-yl)carbonyI]-4-chloro-2-fluorophenyl}propyl]amino}-4-methylpentanamide], the IC50 is, setting by setting: under setting [1], 7.5 µM; under setting [3], less than 30 µM.
